Data as given in ChEMBL document CHEMBL4507297, “Data for DCP probe PF-04457845” (2021).

Columns and labels:
[1] = target: Cyclin-dependent kinase 5 (Homo sapiens) (UniProt Q00535); details: Compound concentration 1000.0 nM
[2] = target: Transient receptor potential cation channel subfamily M member 6 (Homo sapiens) (UniProt Q9BX84); details: Compound concentration 1000.0 nM
[3] = target: Casein kinase I isoform gamma-1 (Homo sapiens) (UniProt Q9HCP0); details: Compound concentration 1000.0 nM
[4] = target: Serine/threonine-protein kinase PAK 2 (Homo sapiens) (UniProt Q13177); details: Compound concentration 1000.0 nM
[5] = target: Tyrosine-protein kinase ABL2 (Homo sapiens) (UniProt P42684); details: Compound concentration 1000.0 nM
[6] = target: Receptor tyrosine-protein kinase erbB-2 (Homo sapiens) (UniProt P04626); details: Compound concentration 1000.0 nM
[7] = target: Mitogen-activated protein kinase 1 (Homo sapiens) (UniProt P28482); details: Compound concentration 1000.0 nM
[8] = target: Myosin light chain kinase 2, skeletal/cardiac muscle (Homo sapiens) (UniProt Q9H1R3); details: Compound concentration 1000.0 nM
[9] = target: Dual specificity protein kinase CLK3 (Homo sapiens) (UniProt P49761); details: Compound concentration 1000.0 nM
Sequence of Dual specificity protein kinase CLK3 (Homo sapiens) (P49761 whole entry, looked up): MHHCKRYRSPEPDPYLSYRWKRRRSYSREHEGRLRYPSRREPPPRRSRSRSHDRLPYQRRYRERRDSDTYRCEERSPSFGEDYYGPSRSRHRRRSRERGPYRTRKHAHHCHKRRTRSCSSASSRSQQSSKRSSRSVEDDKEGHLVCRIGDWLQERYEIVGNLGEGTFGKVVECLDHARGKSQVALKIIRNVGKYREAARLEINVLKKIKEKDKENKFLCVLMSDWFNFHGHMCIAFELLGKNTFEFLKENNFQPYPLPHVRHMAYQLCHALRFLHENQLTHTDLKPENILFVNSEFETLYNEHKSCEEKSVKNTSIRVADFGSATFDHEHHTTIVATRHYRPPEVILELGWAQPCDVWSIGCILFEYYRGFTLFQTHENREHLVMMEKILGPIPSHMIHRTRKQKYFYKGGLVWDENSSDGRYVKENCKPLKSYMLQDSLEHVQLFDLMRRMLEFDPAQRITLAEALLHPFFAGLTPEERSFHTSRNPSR

[10] = target: Serine/threonine-protein kinase 38 (Homo sapiens) (UniProt Q15208); details: Compound concentration 1000.0 nM
[11] = system: Epidermal growth factor receptor (Homo sapiens), P00533 [L858R]; details: Compound concentration 1000.0 nM
[12] = target: Beta-2 adrenergic receptor (Homo sapiens) (UniProt P07550); details: Compound concentration 10.0 uM
[13] = system: Proto-oncogene tyrosine-protein kinase receptor Ret (Homo sapiens), P07949 [V804M]; details: Compound concentration 1000.0 nM
[14] = target: Serine/threonine-protein kinase DCLK3 (Homo sapiens) (UniProt Q9C098); details: Compound concentration 1000.0 nM
Sequence of Serine/threonine-protein kinase DCLK3 (Homo sapiens) (Q9C098 whole entry): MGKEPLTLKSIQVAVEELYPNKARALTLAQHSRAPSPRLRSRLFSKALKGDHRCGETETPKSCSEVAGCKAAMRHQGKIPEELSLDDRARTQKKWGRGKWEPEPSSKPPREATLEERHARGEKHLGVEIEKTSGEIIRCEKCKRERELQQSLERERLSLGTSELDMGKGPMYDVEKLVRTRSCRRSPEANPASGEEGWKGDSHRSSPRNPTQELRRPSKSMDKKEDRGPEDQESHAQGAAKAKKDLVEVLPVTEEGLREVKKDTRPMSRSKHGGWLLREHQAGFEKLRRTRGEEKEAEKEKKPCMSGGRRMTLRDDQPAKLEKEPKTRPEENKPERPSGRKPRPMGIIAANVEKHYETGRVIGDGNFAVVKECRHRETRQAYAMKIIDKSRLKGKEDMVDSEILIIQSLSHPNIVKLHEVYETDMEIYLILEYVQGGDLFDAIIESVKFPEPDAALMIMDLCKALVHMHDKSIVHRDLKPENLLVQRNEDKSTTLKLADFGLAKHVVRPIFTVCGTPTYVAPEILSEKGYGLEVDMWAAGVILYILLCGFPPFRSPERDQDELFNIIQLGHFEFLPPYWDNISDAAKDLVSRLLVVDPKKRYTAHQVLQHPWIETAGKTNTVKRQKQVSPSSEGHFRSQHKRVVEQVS

[15] = target: Serine/threonine-protein kinase ULK1 (Homo sapiens) (UniProt O75385); details: Compound concentration 1000.0 nM
[16] = system: Mast/stem cell growth factor receptor Kit (Homo sapiens), P10721 [V559D,V654A]; details: Compound concentration 1000.0 nM
[17] = system: Mast/stem cell growth factor receptor Kit (Homo sapiens), P10721 [A829P]; details: Compound concentration 1000.0 nM
Sequence of Mast/stem cell growth factor receptor Kit (Homo sapiens), P10721 [A829P] (P10721 whole entry A829P): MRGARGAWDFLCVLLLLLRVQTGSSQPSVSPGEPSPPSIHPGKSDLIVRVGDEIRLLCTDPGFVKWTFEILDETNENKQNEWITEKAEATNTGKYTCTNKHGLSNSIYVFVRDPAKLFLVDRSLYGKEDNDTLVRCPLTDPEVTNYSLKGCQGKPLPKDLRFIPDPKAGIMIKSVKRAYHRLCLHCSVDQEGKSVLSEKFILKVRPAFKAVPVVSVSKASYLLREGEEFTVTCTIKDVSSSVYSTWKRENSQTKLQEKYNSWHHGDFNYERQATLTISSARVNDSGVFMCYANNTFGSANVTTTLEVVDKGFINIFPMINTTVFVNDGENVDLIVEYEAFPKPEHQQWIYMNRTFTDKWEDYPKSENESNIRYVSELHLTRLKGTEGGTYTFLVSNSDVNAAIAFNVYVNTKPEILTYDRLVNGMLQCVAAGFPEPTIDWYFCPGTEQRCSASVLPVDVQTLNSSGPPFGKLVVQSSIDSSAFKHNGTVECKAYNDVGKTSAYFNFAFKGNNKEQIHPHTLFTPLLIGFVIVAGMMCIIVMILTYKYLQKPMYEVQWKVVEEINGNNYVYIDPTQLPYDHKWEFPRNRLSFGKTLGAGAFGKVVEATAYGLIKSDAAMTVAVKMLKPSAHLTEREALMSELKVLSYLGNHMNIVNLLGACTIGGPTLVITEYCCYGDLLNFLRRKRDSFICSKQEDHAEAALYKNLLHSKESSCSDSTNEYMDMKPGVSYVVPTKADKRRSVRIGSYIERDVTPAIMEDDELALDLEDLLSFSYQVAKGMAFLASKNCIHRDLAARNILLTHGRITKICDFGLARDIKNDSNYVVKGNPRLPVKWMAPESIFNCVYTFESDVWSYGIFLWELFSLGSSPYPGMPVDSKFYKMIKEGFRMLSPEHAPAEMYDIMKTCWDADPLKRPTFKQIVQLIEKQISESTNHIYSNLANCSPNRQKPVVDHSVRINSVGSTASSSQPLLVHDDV

[18] = target: Myosin-IIIb (Homo sapiens) (UniProt Q8WXR4); details: Compound concentration 1000.0 nM
[19] = target: T1, 5-hydroxytryptamine receptor 3A (Homo sapiens) (UniProt P46098); details: Compound concentration 10.0 uM
T1 sequence (whole entry): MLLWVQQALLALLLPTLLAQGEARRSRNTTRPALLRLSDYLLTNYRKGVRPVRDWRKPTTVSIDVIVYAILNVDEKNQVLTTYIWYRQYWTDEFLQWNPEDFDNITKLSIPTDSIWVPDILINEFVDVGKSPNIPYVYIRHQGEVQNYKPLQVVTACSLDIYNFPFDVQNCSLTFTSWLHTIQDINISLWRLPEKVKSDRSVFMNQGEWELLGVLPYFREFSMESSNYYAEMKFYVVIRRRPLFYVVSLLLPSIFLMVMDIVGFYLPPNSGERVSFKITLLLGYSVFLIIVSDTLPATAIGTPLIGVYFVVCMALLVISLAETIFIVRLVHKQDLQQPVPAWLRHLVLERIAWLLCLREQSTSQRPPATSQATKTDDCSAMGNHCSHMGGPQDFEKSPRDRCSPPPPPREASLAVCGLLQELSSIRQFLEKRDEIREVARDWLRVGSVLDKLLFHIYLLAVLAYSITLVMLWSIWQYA

[20] = target: Mitogen-activated protein kinase 7 (Homo sapiens) (UniProt Q13164); details: Compound concentration 1000.0 nM
[21] = target: Calcium/calmodulin-dependent protein kinase type 1G (Homo sapiens) (UniProt Q96NX5); details: Compound concentration 1000.0 nM
[22] = target: Inhibitor of nuclear factor kappa-B kinase subunit beta (Homo sapiens) (UniProt O14920); details: Compound concentration 1000.0 nM
[23] = target: Serine/threonine-protein kinase PAK 6 (Homo sapiens) (UniProt Q9NQU5); details: Compound concentration 1000.0 nM
[24] = target: Serine/threonine-protein kinase ULK2 (Homo sapiens) (UniProt Q8IYT8); details: Compound concentration 1000.0 nM
Sequence of Serine/threonine-protein kinase ULK2 (Homo sapiens) (Q8IYT8 whole entry, the tested form may be a part): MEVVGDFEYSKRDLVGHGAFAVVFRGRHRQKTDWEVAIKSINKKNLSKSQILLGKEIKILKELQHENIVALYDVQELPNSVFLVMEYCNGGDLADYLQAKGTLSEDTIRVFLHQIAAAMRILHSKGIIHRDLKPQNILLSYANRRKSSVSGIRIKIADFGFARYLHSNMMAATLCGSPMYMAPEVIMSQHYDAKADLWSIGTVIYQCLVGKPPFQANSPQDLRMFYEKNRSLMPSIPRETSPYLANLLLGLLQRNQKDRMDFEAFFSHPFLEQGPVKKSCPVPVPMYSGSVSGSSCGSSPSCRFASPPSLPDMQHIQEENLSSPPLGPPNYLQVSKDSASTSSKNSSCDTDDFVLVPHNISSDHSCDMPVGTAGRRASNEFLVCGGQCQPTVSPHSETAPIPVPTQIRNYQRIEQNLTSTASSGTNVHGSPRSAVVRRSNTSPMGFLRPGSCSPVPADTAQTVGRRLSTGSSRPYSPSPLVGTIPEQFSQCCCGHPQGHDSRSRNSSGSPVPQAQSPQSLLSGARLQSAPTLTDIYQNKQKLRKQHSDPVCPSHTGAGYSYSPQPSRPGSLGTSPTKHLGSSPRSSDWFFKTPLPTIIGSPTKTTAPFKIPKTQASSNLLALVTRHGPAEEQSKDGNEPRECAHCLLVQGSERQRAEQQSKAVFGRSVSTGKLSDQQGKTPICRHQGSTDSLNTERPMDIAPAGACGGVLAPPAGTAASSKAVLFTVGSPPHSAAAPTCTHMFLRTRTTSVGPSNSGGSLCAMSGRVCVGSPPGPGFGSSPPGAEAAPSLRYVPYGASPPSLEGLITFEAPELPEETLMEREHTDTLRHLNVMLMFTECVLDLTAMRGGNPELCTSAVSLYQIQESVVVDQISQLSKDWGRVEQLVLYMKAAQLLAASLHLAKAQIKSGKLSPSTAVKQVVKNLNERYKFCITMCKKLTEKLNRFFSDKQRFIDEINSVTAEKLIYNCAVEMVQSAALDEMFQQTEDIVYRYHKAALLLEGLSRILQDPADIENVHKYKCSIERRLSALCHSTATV

[25] = target: Ankyrin repeat and protein kinase domain-containing protein 1 (Homo sapiens) (UniProt Q8NFD2); details: Compound concentration 1000.0 nM
[26] = system: Epidermal growth factor receptor (Homo sapiens), P00533 [UNDEFINED MUTATION]; details: Compound concentration 1000.0 nM
[27] = target: Serine/threonine-protein kinase 26 (Homo sapiens) (UniProt Q9P289); details: Compound concentration 1000.0 nM
[28] = system: Tyrosine-protein kinase ABL1 (Homo sapiens), P00519 [Q252H]; details: Compound concentration 1000.0 nM
[29] = target: NUAK family SNF1-like kinase 1 (Homo sapiens) (UniProt O60285); details: Compound concentration 1000.0 nM
[30] = target: Mitogen-activated protein kinase kinase kinase 13 (Homo sapiens) (UniProt O43283); details: Compound concentration 1000.0 nM
[31] = target: Epidermal growth factor receptor (Homo sapiens) (UniProt P00533); details: Compound concentration 1000.0 nM
[32] = system: Mast/stem cell growth factor receptor Kit (Homo sapiens), P10721 [D816H]; details: Compound concentration 1000.0 nM
Sequence of Mast/stem cell growth factor receptor Kit (Homo sapiens), P10721 [D816H] (P10721 whole entry D816H): as the sequence (P10721 whole entry A829P) above, with D816H, P829A counted along it

[33] = target: Aurora kinase C (Homo sapiens) (UniProt Q9UQB9); details: Compound concentration 1000.0 nM
[34] = target: Serine/threonine-protein kinase 4 (Homo sapiens) (UniProt Q13043); details: Compound concentration 1000.0 nM
[35] = target: Myosin-IIIa (Homo sapiens) (UniProt Q8NEV4); details: Compound concentration 1000.0 nM
[36] = target: D(2) dopamine receptor (Homo sapiens) (UniProt P14416); details: Compound concentration 10.0 uM
[37] = target: Ribosomal protein S6 kinase alpha-6 (Homo sapiens) (UniProt Q9UK32); details: Compound concentration 1000.0 nM
[38] = target: Mitogen-activated protein kinase 14 (Homo sapiens) (UniProt Q16539); details: Compound concentration 1000.0 nM
Sequence of Mitogen-activated protein kinase 14 (Homo sapiens) (Q16539 whole entry): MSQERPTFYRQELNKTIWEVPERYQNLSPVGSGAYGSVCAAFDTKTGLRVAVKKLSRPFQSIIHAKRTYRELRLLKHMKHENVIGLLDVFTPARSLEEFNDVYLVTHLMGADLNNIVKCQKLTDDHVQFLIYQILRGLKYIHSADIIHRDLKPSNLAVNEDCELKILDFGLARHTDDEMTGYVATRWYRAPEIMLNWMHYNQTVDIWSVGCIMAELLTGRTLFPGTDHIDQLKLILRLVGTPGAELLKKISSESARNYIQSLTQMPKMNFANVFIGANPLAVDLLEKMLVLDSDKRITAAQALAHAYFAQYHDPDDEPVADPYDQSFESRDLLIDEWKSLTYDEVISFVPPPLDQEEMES

[39] = target: Serine/threonine-protein kinase PAK 4 (Homo sapiens) (UniProt O96013); details: Compound concentration 1000.0 nM

Sequence of Casein kinase I isoform gamma-1 (Homo sapiens) (Q9HCP0 whole entry, looked up, canonical isoform): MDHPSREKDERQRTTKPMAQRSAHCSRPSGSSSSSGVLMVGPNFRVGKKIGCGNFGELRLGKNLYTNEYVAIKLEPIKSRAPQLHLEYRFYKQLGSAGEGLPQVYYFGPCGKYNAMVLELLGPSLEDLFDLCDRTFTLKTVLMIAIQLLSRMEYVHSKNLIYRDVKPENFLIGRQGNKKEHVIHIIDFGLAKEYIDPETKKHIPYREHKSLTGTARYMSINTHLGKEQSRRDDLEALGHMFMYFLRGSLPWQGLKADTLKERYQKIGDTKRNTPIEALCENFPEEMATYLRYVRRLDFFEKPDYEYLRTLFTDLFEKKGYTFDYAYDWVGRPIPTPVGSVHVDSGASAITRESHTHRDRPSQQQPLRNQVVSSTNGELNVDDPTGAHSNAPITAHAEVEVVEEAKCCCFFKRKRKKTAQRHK

| SMILES | residual activity [1] | residual activity [2] | residual activity [3] | residual activity [4] | residual activity [5] | residual activity [6] | residual activity [7] | residual activity [8] | residual activity [9] | residual activity [10] | residual activity [11] | inhibition [12] | residual activity [13] | residual activity [14] | residual activity [15] | residual activity [16] | residual activity [17] | residual activity [18] | inhibition [19] | residual activity [20] | other results |
| --- | --- | --- | --- | --- | --- | --- | --- | --- | --- | --- | --- | --- | --- | --- | --- | --- | --- | --- | --- | --- | --- |
| O=C(Nc1cccnn1)N1CCC(=Cc2cccc(Oc3ccc(C(F)(F)F)cn3)c2)CC1 | 92% | 98% | 100% | 83% | 99% | 72% | 92% | 88% | 100% | 100% | 100% | 0.51% | 100% | 85% | 84% | 100% | 96% | 100% | 10.7% | 100% | residual activity [21]: 95%; residual activity [22]: 83%; residual activity [23]: 100%; residual activity [24]: 100%; residual activity [25]: 96%; residual activity [26]: 68%; residual activity [27]: 100%; residual activity [28]: 75%; residual activity [29]: 86%; residual activity [30]: 100%; residual activity [31]: 100%; residual activity [32]: 100%; residual activity [33]: 100%; residual activity [34]: 77%; residual activity [35]: 100%; inhibition [36]: 1.84%; residual activity [37]: 100%; residual activity [38]: 100%; residual activity [39]: 77% |
| O=C(Nc1cccnn1)N1CC(C/C=C/c2cncc(Oc3ccc(C(F)(F)F)cn3)n2)C1 | 100% | 73% | 100% | 95% | 100% | 83% | 100% | 87% | 100% | 99% | 97% | 16.8% | 100% | 100% | 79% | 100% | 59% | 100% | -0.28% | 100% | residual activity [21]: 100%; residual activity [22]: 94%; residual activity [23]: 100%; residual activity [24]: 73%; residual activity [25]: 73%; residual activity [26]: 100%; residual activity [27]: 71%; residual activity [28]: 100%; residual activity [29]: 100%; residual activity [30]: 0%; residual activity [31]: 99%; residual activity [32]: 74%; residual activity [33]: 100%; residual activity [34]: 100%; residual activity [35]: 100%; inhibition [36]: 13.7%; residual activity [37]: 80%; residual activity [38]: 100%; residual activity [39]: 96% |
